# Reference: article PMC9909988, “Procoxacin bidirectionally inhibits osteoblastic and osteoclastic activity in bone and suppresses bone metastasis of prostate cancer” (Journal of Experimental & Clinical Cancer Research : CR, 2023)
# Biological target: T1, 14–3-3ζ (Homo sapiens, UniProt P63104)
# T1 construct: gene YWHAZ
# Assay: SPR (Biacore T200, […]-3ζ ab87361 captured on NTA chip); supported by Pro-conjugated magnetic bead pull-down from C4-2B lysate
# Assay type: binding
# T1 sequence (P63104 whole entry): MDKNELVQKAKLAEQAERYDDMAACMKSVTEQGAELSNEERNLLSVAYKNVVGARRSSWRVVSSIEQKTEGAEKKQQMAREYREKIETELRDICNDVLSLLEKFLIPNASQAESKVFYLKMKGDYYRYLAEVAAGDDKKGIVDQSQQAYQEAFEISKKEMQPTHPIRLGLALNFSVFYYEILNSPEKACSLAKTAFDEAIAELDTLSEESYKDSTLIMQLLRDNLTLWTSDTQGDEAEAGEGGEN
smiles,measurement,value
"CC[C@@H](C(=O)[C@@H](C)[C@@H](O)[C@H](C)[C@@H]1O[C@@H]([C@@H](CC)C(=O)O)CC[C@@H]1C)[C@H]1O[C@]2(C=C[C@@H](O)[C@]3(CC[C@@](C)([C@H]4CC[C@](O)(CC)[C@H](C)O4)O3)O2)[C@H](C)C[C@@H]1C [Pro, Procoxacin]",Kd,1930 nM
